What was measured:
[1] = target: T1, plasma dipeptidylpeptidase IV (Mus musculus, UniProt P28843); assay: Inhibition of plasma dipeptidylpeptidase IV activity in mice by oral administration; format: in vivo; conditions: male ICR mice, 0.1 mg/mL suspension at 10 mL/kg, 30 minutes after administration
T1 construct: The blood samples were centrifuged at 6000 rpm for 2 minutes to separate plasma; from tissue; host or cells: plasma of male ICR mice (Charles River Laboratories Japan)
Procedure: Each compound was suspended in 0.3% sodium carboxymethylcellulose to a concentration of 0.1 mg/mL. The preparation was orally administered to 8 weeks old male ICR mice (Charles River Laboratories Japan) at a dose of 10 mL/kg. Using an EDTA 2K-treated capillary tube, blood samples were collected from the tail vein before administration and 30 minutes after administration. The blood samples were centrifuged at 6000 rpm for 2 minutes to separate plasma. […] The inhibition was determined from the decrease in the enzymatic activity from the initial activity (% inhibition={(activity before administration−activity after administration)/(activity before administration)}×100).

[2] = target: T2, plasma dipeptidylpeptidase IV (Homo sapiens, UniProt P27487); assay: In vitro dipeptidylpeptidase IV inhibition (H-Gly-Pro-AMC hydrolysis by plasma, fluorometry); format: biochemical; conditions: plasma diluted 8-fold, H-Gly-Pro-AMC.HBr substrate, room temperature, 20 minutes
T2 construct: 20 μL of plasma diluted 8-fold with saline in a well of a 96-well flat bottom plate; from tissue
T2 sequence (P27487 39-766 limits assumed): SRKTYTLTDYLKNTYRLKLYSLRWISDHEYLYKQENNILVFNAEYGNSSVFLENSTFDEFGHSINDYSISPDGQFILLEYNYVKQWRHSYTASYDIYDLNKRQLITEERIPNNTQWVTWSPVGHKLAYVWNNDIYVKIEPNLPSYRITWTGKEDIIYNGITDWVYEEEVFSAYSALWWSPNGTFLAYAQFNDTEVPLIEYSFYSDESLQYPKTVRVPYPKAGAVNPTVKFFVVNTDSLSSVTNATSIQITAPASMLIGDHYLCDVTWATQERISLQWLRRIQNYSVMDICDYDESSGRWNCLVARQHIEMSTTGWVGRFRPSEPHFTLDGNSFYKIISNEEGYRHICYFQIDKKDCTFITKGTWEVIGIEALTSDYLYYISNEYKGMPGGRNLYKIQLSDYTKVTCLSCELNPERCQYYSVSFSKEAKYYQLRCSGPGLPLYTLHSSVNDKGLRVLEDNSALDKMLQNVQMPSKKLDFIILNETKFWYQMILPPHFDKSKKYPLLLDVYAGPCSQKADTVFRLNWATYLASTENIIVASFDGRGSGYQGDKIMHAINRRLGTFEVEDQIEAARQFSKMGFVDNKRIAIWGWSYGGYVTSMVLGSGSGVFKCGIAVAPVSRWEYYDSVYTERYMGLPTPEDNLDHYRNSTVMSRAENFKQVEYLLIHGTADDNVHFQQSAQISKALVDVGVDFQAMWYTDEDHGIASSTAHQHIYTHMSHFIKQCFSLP
Procedure: The concentration of free 7-amino-4-methyl-coumarin (AMC) generated by hydrolysis of H-Gly-Pro-AMC.HBr substrate by plasma dipeptidylpeptidase IV was determined by fluorometry.
A 20 μL of buffer (25 mmol/L hepes, 140 mmol/L sodium chloride, 1% bovine serum albumin, 80 mmol/L magnesium chloride hexahydrate, pH 7.4) containing each compound was added to 20 μL of plasma diluted 8-fold with saline in a well of a 96-well flat bottom plate. The plate was left at room temperature for 5 minutes and 10 μL of 0.1 mmol/L H-Gly-Pro-AMC.HBr solution was added to each well to initiate the reaction. […] Using a fluorescent plate reader, the free AMC concentration was determined by exciting the samples at 355 nm and measuring the fluorescence intensity at 460 nm.

T1 sequence (P28843 37-760 limits assumed): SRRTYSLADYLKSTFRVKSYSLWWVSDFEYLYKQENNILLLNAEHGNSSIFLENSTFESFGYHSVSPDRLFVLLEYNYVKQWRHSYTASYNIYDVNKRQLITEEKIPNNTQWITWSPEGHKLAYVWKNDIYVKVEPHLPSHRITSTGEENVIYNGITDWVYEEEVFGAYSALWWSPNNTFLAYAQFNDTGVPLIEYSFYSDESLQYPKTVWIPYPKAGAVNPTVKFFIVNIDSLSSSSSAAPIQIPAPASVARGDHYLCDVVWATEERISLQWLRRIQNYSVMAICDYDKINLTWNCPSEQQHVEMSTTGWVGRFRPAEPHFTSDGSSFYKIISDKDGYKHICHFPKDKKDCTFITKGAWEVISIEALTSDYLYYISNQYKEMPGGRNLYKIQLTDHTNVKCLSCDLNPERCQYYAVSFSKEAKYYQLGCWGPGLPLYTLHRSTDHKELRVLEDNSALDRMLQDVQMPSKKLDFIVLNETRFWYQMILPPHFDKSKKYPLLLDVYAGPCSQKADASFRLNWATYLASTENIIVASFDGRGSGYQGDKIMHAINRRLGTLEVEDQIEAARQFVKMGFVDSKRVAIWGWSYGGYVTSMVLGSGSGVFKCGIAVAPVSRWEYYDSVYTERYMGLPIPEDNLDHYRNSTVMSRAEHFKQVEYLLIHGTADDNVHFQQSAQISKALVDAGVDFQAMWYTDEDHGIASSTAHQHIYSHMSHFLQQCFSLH

Row | Compound | inhibition at 1 mg/kg [1] [%] | IC50 [2] [nM]
1 | CC12CCC(NCC(=O)N3C[C@@H](F)C[C@H]3C#N)(CC1)CC2 [Example 3, (2S,4S)-1-[[N-(4-methylbicyclo[2,2,2]oct-1-yl)amino]acetyl]-4-fluoropyrrolidine-2-carbonitrile] | 100 | 0.25
2 | N#C[C@@H]1C[C@H](F)CN1C(=O)CNC12CCC(F)(CC1)CC2 [Example 7, (2S,4S)-1-[[N-(4-fluorobicyclo[2,2,2]oct-1-yl)amino]acetyl]-4-fluoropyrrolidine-2-carbonitrile] | 91 | –
3 | N#C[C@@H]1C[C@H](F)CN1C(=O)CNC12CCC(CO)(CC1)CC2 [Example 5, (2S,4S)-1-[[N-(4-hydroxymethylbicyclo[2,2,2]oct-1-yl)amino]acetyl]-4-fluoropyrrolidine-2-carbonitrile] | – | 1.1
4 | N#C[C@@H]1C[C@H](F)CN1C(=O)CNC12CCC(C(=O)O)(CC1)CC2 [Example 1, (2S,4S)-1-[[N-(4-carboxybicyclo[2,2,2]oct-1-yl)amino]acetyl]-4-fluoropyrrolidine-2-carbonitrile] | – | 3.1

— US7514571B2, “Bicyclo derivative” (Kyorin Pharmaceutical Co., Ltd., priority 2004, dated 2009)
